Each structure is given as a SMILES string.

The values below come from PMC12682947, “Identification of New KCNT1‐Epilepsy Drugs by In Silico, Cell, and Drosophila Modeling” (Annals of Neurology, 2025).

The test system of experiment [1] is Drosophila mutant KCNT1 lines (G288S, R398Q, R928C). On the set-up: method as in PMID 38336906. Particulars: Drosophila models of KCNT1 epilepsy; cited from earlier work.
Experiment [2] has as its system Drosophila epilepsy model. On the set-up: method as in PMID 39720593. To be noted: cited from earlier work.
Experiment [3] relates to Drosophila mutant KCNT1 lines (G288S, R398Q, R928C). Put plainly: Bang-sensitive behavioral seizure assay, statements for all three Drosophila mutant KCNT1 lines. It counts as in vivo, Drosophila melanogaster. To be noted: drug in food, 1 nM to 1 μM, each of the three mutant lines. The source says: The Drosophila melanogaster lines carrying the WT human KCNT1 transgene (NM_020822_3) or KCNT1 mutant G288S, R398Q or R928C transgene placed downstream of the yeast UAS promoter, have been described previously.[11] WT or mutant human UAS‐KCNT1 flies were crossed to flies expressing the GAL4 transcriptional activator under the control of the GAD1 promoter (GABAergic driver, Bloomington stock number 51630 P2) to drive expression of KCNT1 in GABAergic neurons, involved in neuronal inhibition.[11]
The bang‐sensitive behavioral assay (also known as the banging assay) was used to test for the presence of a seizure phenotype in Drosophila.[11], [30] Experiments were performed and scored, as previously described,[11] with a minimum of 50 Drosophila tested for each genotype and drug concentration.
Four drugs were selected for in vivo analysis to determine their effects on the seizure phenotypes in transgenic Drosophila lines with human mutant KCNT1 channels. Bepridil, a nonselective KCNT1 inhibitor was included for comparison. Drosophila food with and without drugs was prepared as previously described.[11] All chemicals were obtained from Sigma‐Aldrich (Gillingham, UK) apart from antrafenine hydrochloride (Toronto Research Chemicals, Canada) and regorafenib (USP, Germany).
Drosophila crosses were set up, and the resulting embryos were collected, as previously described.[11] A range of concentrations of each drug dissolved in Drosophila food, between 0.001 μM and 1 μM, were used in the experiments. Multiple replicates were performed for each dosage of the drugs and controls. Controls were vehicle controlled (VC), which was the normal food with just the solvent ethanol present (1 μl/1 ml) in the Drosophila food, and normal food (NF) control where no drug or solvent (ethanol) was added in the Drosophila food.
In all experiments, experimenters were not blinded to variants or treatments, nor were samples randomly assigned to groups. Sample sizes were not calculated in advance and no data were excluded from the analysis. Data were analyzed using GraphPad Prism 9 software (San Diego, CA, USA). All values are reported as mean ± standard error of the mean (SEM). All data passed normality and lognormality Shapiro–Wilk tests, determined by GraphPad Prism 9. In the experiments analyzing the effects of drugs in Drosophila, statistical significance of differences between groups was determined using Brown‐Forsythe and Welch's analysis of variance (ANOVA) tests (Supplementary Table S3), assuming non‐equal SDs, followed by Dunnett's multiple comparisons tests (GraphPad Prism 9). The results of the Dunnett's multiple comparisons tests are shown in Supplementary Table S4, where “N” represents independent trials using independent fly crosses, with the total number of flies for each condition shown in brackets.

For the compound `C=C[C@H]1C[N@@]2CC[C@H]1C[C@@H]2[C@@H](O)c1ccnc2ccc(OC)cc12` [quinidine], in experiment [1], the “effect on seizure phenotype (in words)” value is reported as “exacerbate the seizure phenotype”.

Turning to `Nc1nnc(-c2cccc(Cl)c2Cl)c(N)n1` [lamotrigine], in experiment [2], the reduction of seizures entry is given as “approximately 30%”.

Take `CCCC(CCC)C(=O)O` [valproate]: the reduction of seizures entry in experiment [2] is “approximately 30%”.

For the compound `CC(C)COCC(CN(Cc1ccccc1)c1ccccc1)N1CCCC1` (centres unmarked) [bepridil], in experiment [3], the “effect on seizure activity (in words)” value is listed as “exacerbate the seizure phenotype”.

`O=C1NC(=O)C(c2ccccc2)(c2ccccc2)N1` [Phenytoin]: the reduction of seizures result in experiment [2] is “approximately 30%”.
